Reference: ChEMBL document CHEMBL1146883, “5'-O-tritylinosine and analogues as allosteric inhibitors of human thymidine phosphorylase” (J Med Chem, 2006)

Target: T1, Thymidine phosphorylase (Homo sapiens, UniProt P19971)
T1 sequence (P19971 whole entry): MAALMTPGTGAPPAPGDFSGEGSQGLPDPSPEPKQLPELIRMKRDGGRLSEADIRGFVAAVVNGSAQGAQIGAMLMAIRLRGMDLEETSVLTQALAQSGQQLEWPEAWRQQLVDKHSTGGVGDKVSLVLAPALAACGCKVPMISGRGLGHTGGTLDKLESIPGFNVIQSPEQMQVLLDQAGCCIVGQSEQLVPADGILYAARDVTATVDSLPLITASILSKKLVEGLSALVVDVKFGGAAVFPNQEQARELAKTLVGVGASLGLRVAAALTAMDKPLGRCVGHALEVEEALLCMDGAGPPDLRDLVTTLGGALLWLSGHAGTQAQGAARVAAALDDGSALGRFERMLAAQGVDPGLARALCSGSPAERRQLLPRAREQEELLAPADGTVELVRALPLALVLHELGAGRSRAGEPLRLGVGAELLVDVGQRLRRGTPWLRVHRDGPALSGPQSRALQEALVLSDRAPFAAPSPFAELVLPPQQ
Description: Inhibition of human TPase in presence of 100 uM thymidine

SMILES	IC50 [µM]
OC[C@@H](COC(c1ccccc1)(c1ccccc1)c1ccccc1)O[C@H](CO)n1cnc2c(O)ncnc21	> 200
O=c1c2ncn([C@@H]3O[C@H](COCc4ccccc4)[C@@H](O)[C@H]3O)c2ncn1Cc1ccccc1	> 200
COCCOCn1cnc2c(ncn2[C@@H]2O[C@H](COC(c3ccccc3)(c3ccccc3)c3ccccc3)[C@@H](OC(C)=O)[C@H]2OC(C)=O)c1=O	> 20
CNC(=O)c1ncn([C@@H]2O[C@H](COC(c3ccccc3)(c3ccccc3)c3ccccc3)[C@@H](O)[C@H]2O)c1N	137
NC(=O)c1ncn([C@@H]2O[C@H](COC(c3ccccc3)(c3ccccc3)c3ccccc3)[C@@H](O)[C@H]2O)c1N	≥ 40
COCCOCn1cnc2c(ncn2[C@@H]2O[C@H](COC(c3ccccc3)(c3ccccc3)c3ccccc3)[C@@H](O)[C@H]2O)c1=O	> 100
COCCOCNC(=O)c1ncn([C@@H]2O[C@H](COC(c3ccccc3)(c3ccccc3)c3ccccc3)[C@@H](O)[C@H]2O)c1N	> 75
